Assay results reported in patent US20110039770A1, “INHIBITORS OF PROTEIN KINASE C ISOFORMS AND USES THEREOF” (PHARMAGAP INC., priority 2005, published 2011).
Where two headings read alike, the source gives them in different places. Where a SMILES comes first, the peptide text is derived from it. Bridges are numbered along the chain shown (N, C = ends). Roman numbers before positions name the chains, in order. [ ]: non-standard residue; d: D form. The star is where a group is joined. PNA(A) = NCCN(CC(=O)*)C(=O)Cn1cnc2c(N)ncnc21; Adenin9ylacetyl = Nc1ncnc2c1ncn2CC(=O)*; Gly(N-2-aminoethyl) = NCCNCC(=O)O

Key:
PKC delta [1] = target: T1, PKC delta (Homo sapiens, UniProt Q05655); assay: PepTag Non-Radioactive PKC Assay, purified isoform; assay type: biochemical; conditions: negative = activation
T1 sequence (Q05655 whole entry, canonical isoform): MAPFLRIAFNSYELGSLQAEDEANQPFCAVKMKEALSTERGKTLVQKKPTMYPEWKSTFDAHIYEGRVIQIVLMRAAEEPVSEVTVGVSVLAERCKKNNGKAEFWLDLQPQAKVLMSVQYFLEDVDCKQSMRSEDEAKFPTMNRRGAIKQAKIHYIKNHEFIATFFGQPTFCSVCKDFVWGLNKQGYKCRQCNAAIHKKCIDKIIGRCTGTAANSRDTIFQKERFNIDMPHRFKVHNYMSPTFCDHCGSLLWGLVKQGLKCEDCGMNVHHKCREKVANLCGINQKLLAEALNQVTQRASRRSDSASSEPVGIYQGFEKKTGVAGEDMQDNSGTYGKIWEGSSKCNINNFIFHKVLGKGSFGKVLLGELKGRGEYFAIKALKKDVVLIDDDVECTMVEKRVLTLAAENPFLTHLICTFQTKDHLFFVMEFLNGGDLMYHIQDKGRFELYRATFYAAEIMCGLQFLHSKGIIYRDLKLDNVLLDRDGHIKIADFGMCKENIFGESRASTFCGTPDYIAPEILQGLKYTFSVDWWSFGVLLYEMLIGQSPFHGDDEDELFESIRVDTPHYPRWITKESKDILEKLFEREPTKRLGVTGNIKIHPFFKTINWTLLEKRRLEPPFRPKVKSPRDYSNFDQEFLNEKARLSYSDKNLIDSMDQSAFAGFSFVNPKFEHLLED
Experimental: (§1) The inhibitory effect of the PKI compounds 1 to 10 on purified commercially available isoforms representative of the 3 classes of PKC: cPKC (alpha, betaI/II) nPKC (delta and epsilon) aPKC (zeta) was assayed using the PepTag® Non-Radioactive PKC Assay (Promega, Madison, Wis.). The zeta isoform was tested with this assay although its affinity for the substrate provided in the kit was relatively low. The amount of enzyme in the reaction mixture for the PKC zeta assays was multiplied by 2. The assay was used following the manufacturer's recommendations. The principle of the assay is based on the difference in charge of phosphorylated (negatively charged) form versus the non-phoshorylated form of a fluorescent substrate. The two forms can be separated by gel electrophoresis and the negatively charged band excised and the fluorescence measured (exc. 440 nm and em. 590 nm) in 96 well plates on a Galaxy FluoStar plate reader. The PKI compounds were added to the assay mixture at 3 doses: 150, 300 and 600 μM and an extra 75 μM when the inhibition was too high. The assay is strictly biochemical and the doses of the compounds used, therefore, are generally not correlative with in vivo situations.

PKC beta 2 = target: T2, PKC beta 2 (Homo sapiens, UniProt P05771); assay: PepTag Non-Radioactive PKC Assay, purified isoform; assay type: biochemical; conditions: negative = activation
T2 construct: purchased
T2 sequence (P05771 1-673 isoform P05771-2): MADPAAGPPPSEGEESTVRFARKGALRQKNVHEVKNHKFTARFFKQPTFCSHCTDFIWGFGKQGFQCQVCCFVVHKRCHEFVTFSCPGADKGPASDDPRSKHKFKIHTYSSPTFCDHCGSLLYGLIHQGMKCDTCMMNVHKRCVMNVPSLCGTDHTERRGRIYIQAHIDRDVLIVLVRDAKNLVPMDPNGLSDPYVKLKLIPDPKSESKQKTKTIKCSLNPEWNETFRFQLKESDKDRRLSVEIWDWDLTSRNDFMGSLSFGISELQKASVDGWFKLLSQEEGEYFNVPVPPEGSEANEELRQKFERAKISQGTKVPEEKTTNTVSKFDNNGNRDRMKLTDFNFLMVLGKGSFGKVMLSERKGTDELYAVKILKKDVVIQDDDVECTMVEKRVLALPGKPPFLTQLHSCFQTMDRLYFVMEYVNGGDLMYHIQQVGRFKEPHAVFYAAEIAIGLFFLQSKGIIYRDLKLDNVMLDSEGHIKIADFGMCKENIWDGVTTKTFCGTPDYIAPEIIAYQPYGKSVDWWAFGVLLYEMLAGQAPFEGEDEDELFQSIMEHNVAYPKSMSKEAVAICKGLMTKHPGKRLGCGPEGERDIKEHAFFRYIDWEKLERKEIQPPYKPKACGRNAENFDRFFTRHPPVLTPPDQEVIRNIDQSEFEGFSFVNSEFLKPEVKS
Experimental: as §1

PKC beta 1 = PKC beta 1 (Homo sapiens, UniProt P05771); assay: PepTag Non-Radioactive PKC Assay, purified isoform; assay type: biochemical; design: purchased; conditions: negative = activation
Chain of PKC beta 1 (P05771 whole entry, canonical isoform): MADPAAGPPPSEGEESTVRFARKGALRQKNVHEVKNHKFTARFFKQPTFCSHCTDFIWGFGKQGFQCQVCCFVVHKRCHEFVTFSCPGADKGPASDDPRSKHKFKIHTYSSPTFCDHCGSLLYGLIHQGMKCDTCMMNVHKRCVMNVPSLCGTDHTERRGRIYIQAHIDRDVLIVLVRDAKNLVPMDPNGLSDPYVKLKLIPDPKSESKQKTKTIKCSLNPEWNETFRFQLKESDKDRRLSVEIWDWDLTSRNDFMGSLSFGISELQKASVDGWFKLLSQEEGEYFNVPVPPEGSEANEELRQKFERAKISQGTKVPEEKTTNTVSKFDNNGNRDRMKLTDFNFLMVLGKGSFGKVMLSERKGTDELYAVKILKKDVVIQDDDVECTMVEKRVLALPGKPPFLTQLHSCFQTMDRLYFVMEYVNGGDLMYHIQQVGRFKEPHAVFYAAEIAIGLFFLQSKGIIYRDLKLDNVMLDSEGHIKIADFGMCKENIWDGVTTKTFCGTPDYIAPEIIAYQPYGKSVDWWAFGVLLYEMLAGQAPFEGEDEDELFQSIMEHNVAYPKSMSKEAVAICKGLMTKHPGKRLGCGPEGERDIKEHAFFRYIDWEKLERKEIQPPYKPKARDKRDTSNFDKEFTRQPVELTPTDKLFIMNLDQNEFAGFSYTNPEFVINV
Experimental: as §1

PKC epsilon = target: T3, PKC epsilon (Homo sapiens, UniProt Q02156); assay: PepTag Non-Radioactive PKC Assay, purified isoform; assay type: biochemical; design: purchased; conditions: negative = activation
T3 sequence (Q02156 1-737): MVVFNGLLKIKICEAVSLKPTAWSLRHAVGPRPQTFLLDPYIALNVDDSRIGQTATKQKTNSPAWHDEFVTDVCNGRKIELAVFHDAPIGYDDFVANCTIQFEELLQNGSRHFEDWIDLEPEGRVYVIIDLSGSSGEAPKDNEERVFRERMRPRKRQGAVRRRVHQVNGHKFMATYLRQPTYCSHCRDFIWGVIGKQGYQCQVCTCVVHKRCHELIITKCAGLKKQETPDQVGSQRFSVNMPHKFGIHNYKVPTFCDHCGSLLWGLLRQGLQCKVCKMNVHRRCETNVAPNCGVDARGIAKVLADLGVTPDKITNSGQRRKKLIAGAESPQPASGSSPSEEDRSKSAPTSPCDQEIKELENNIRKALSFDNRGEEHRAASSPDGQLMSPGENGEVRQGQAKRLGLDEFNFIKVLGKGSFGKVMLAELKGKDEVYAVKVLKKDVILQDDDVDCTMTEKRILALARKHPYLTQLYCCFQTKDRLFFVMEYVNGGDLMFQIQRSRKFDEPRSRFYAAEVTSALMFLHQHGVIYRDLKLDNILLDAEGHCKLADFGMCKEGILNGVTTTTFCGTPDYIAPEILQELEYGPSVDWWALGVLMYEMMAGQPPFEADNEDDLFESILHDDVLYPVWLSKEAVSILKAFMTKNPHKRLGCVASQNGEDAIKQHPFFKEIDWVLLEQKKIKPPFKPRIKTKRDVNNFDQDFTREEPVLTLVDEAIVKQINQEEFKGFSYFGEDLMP
Experimental: as §1

PKC alpha = PKC alpha (Homo sapiens, UniProt P17252); assay: PepTag Non-Radioactive PKC Assay, purified isoform; assay type: biochemical; design: purchased; conditions: negative = activation
Experimental: as §1

PKC zeta = target: T4, PKC zeta (Homo sapiens, UniProt Q05513); assay: PepTag Non-Radioactive PKC Assay, purified isoform; assay type: biochemical; design: purchased; conditions: enzyme amount x2, negative = activation
T4 sequence (Q05513 1-592): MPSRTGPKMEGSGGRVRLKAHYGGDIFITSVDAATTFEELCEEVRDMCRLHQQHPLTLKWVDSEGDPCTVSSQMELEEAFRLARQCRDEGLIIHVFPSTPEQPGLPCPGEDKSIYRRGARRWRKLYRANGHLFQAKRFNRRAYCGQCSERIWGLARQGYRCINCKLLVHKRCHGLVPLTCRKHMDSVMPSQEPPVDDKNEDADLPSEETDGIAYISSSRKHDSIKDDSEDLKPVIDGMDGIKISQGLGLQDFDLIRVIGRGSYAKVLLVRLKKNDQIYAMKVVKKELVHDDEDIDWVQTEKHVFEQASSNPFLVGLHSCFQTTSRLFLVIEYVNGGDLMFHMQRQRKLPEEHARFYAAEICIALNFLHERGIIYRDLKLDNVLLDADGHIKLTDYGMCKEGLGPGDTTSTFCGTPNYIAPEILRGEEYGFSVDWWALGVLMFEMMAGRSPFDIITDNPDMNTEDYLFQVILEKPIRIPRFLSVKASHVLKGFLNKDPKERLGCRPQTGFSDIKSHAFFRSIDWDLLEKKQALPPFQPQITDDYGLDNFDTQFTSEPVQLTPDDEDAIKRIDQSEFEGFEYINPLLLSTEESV
Experimental: as §1

[2] = tested on: IMR-32 human neuroblastoma cells
Experimental: The ability of compounds PKI 1, PKI 2 and PKI 3 to inhibit cancer cell proliferation was tested in vitro using the human neuroblastoma cell line IMR-32. Monolayer cell cultures were trypsinized and the test compound was added at the doses indicated in Table 24 and internalized by pinocytic endocytosis using Influx TM pinocytic cell-loading reagent, a kit from Molecular Probes (Eugene, Oreg.) following the manufacturer's recommendations. The indicated doses refer to the concentration in the loading medium, which was used on 1×10^6 cells in a 10 μl volume, i.e. contained 10 μg to 100 ug of test compound that provides […] per cell. […] The cells were treated on day 0 of the experiment. The cells loaded with test compound were cultured in 96 well plates (5,000 cells in 100 μl per well), and the proliferation was monitored over 3 consecutive days. The increase in cell population was quantified using a Hoechst reagent-based assay (modified from Rao and Otto, 1992, Analytical Biochem. 207:186-192) that measures the total DNA of the population. Fluorescence was measured using a Millipore CytoFluor 2350 plate reader (excitation at 360 nm and emission at 460 nm). The measurements were obtained as relative fluorescence intensity, a value that is directly correlated to the total number of cells. Data are expressed as a percentage of matching controls that were supplemented with culture medium alone.
The ability of the compound TIM 9 to inhibit cancer cell proliferation was tested in vitro using the human neuroblastoma cell line IMR-32 and following the general protocol described in Example 14.
The ability of the compound TIM 11 to inhibit IMR-32 cancer cell proliferation was tested in vitro following the general protocol described in Example 14.
The ability of the compound TIM 10 to inhibit cancer cell proliferation was tested in vitro using the human neuroblastoma IMR-32 cell line and following the general protocol described in Example 14.

PKC delta [3] = target: T1, PKC delta; assay: Kinase-Glo Luminescent Kinase Assay; assay type: biochemical
Experimental: Compounds TIM 10, 11, 13, 14, 15, and 18-22 (see Table 28) were tested for their ability to inhibit the activity of PKC-alpha, beta 1, delta and epsilon isoforms the Kinase-Glo™ Luminescent Kinase Assay (Promega, Cat # V6712/3/4) following the manufacturer's instructions.

[4] = 1.0 mg/mL in loading medium, 24 h
[5] = 1.0 mg/mL in loading medium, 48 h
[6] = 1.0 mg/mL in loading medium, 72 h
[7] = 2.5 mg/mL in loading medium, 24 h
[8] = 2.5 mg/mL in loading medium, 48 h
[9] = 2.5 mg/mL in loading medium, 72 h
[10] = 5.0 mg/mL in loading medium, 24 h
[11] = 5.0 mg/mL in loading medium, 48 h
[12] = 5.0 mg/mL in loading medium, 72 h
[13] = 10.0 mg/mL in loading medium, 24 h
[14] = 10.0 mg/mL in loading medium, 48 h
[15] = 10.0 mg/mL in loading medium, 72 h

Row | Compound | inhibition at 150 µM (PKC delta [1]) [%] | inhibition at 300 µM (PKC delta [1]) [%] | inhibition at 600 µM (PKC delta [1]) [%] | inhibition at 150 µM (PKC beta 2) [%] | inhibition at 300 µM (PKC beta 2) [%] | inhibition at 600 µM (PKC beta 2) [%] | inhibition at 150 µM (PKC beta 1) [%] | inhibition at 300 µM (PKC beta 1) [%] | inhibition at 600 µM (PKC beta 1) [%] | inhibition at 150 µM (PKC epsilon) [%] | inhibition at 300 µM (PKC epsilon) [%] | inhibition at 600 µM (PKC epsilon) [%] | inhibition at 150 µM (PKC alpha) [%] | inhibition at 300 µM (PKC alpha) [%] | inhibition at 600 µM (PKC alpha) [%] | inhibition at 150 µM (PKC zeta) [%] | inhibition at 300 µM (PKC zeta) [%] | inhibition at 600 µM (PKC zeta) [%] | % Inhibition of IMR-32 proliferation [2, 4] [%] | % Inhibition of IMR-32 proliferation [2, 5] [%] | also measured
1 | CC[C@H](C)[C@H](NC(=O)[C@H](CSSC[C@H](NC(=O)CNC(=O)CN(CCN)C(=O)Cn1cnc2c(N)ncnc21)C(=O)N[C@@H](CCCCN)C(=O)NCC(=O)N[C@@H](CCCCN)C(=O)N[C@@H](Cc1ccccc1)C(=O)N[C@@H](CCCCN)C(=O)N[C@@H](CCCNC(=N)N)C(N)=O)NC(=O)[C@H](Cc1c[nH]cn1)NC(C)=O)C(=O)NCC(=O)N[C@@H](CCCNC(=N)N)C(=O)N[C@@H](Cc1ccccc1)C(=O)N[C@@H](CCCCN)C(N)=O [PKI 1] (I: Adenin9ylacetyl-[Gly(N-2-aminoethyl)]GCKGKFKR-NH2 / II: Ac-HCIGRFK-NH2; disulfide I:3-II:2; C-terminus assumed) | 56 | 61 | 88 | 78 | 90 | 92 | 71 | 92 | 93 | 54 | 58 | 83 | 78 | 84 | 87 | 15 | 10 | 20 | – | – | –
2 | CC(=O)N[C@@H](CC(C)C)C(=O)N[C@@H](CCCNC(=N)N)C(=O)N[C@@H](CCCNC(=N)N)C(=O)N[C@@H](C)C(=O)N[C@@H](CCCCNC(=O)CN(CCN)C(=O)Cn1cnc2c(N)ncnc21)C(=O)N[C@@H](CC(C)C)C(=O)NCC(N)=O [PKI 2] (Ac-LRRAK(PNA(A))LG-NH2; C-terminus assumed) | 59 | 79 | 84 | -59 | 61 | 74 | 18 | 52 | 70 | 58 | 67 | 84 | -24 | 35 | 83 | 0 | 6 | 20 | 49 | 51 | % Inhibition of IMR-32 proliferation [2, 6]: 10%; % Inhibition of IMR-32 proliferation [2, 7]: 29%; % Inhibition of IMR-32 proliferation [2, 8]: 21%; % Inhibition of IMR-32 proliferation [2, 9]: 26%; % Inhibition of IMR-32 proliferation [2, 10]: 31%; % Inhibition of IMR-32 proliferation [2, 11]: 20%; % Inhibition of IMR-32 proliferation [2, 12]: 17%; % Inhibition of IMR-32 proliferation [2, 13]: 31%; % Inhibition of IMR-32 proliferation [2, 14]: 29%; % Inhibition of IMR-32 proliferation [2, 15]: 21%
3 | CC(=O)N[C@@H](Cc1ccccc1)C(=O)N[C@@H](CCCNC(=N)N)C(=O)N[C@@H](CCCNC(=N)N)C(=O)N[C@@H](CCCCNC(=O)CN(CCN)C(=O)Cn1cnc2c(N)ncnc21)C(=O)N[C@@H](Cc1ccccc1)C(=O)N[C@@H](CCCNC(=N)N)C(=O)N[C@@H](CC(C)C)C(N)=O [PKI 3] (Ac-FRRK(PNA(A))FRL-NH2; C-terminus assumed) | 32 | 41 | 70 | 31 | 83 | 81 | 37 | 76 | 80 | 38 | 53 | 68 | 47 | 51 | 82 | 37 | 40 | 56 | 70 | 72 | % Inhibition of IMR-32 proliferation [2, 6]: 72%; % Inhibition of IMR-32 proliferation [2, 7]: 26%; % Inhibition of IMR-32 proliferation [2, 8]: 29%; % Inhibition of IMR-32 proliferation [2, 9]: 14%; % Inhibition of IMR-32 proliferation [2, 10]: 29%; % Inhibition of IMR-32 proliferation [2, 11]: 31%; % Inhibition of IMR-32 proliferation [2, 12]: 22%; % Inhibition of IMR-32 proliferation [2, 13]: 26%; % Inhibition of IMR-32 proliferation [2, 14]: 30%; % Inhibition of IMR-32 proliferation [2, 15]: 22%
4 | Ac—FRRCFRL—(G)7—RRKKGGKDFVVKR—NH2 (Ac-FRRCFRLGGGGGGGRRKKGGKDFVVKR-NH2) [TIM 20, PRE 1 and PKI 4] | – | – | – | – | – | – | – | – | – | – | – | – | – | – | – | – | – | – | – | – | % Inhibition PKC-δ (PKC delta [3]; 5.0 μM): 46.0%; % Inhibition PKC-δ (PKC delta [3]; 30.0 μM): 45.4%; inhibition of PKC delta activity (in words) (PKC delta [3]; Kinase-Glo): good specificity for PKC delta
